From patent US20200399238A1, “THERAPEUTIC AURONES” (MIDDLE TENNESSEE STATE UNIVERSITY, priority 2016, published 2020)
Read-outs that look alike come from different tables or passages of the source.

Assays:
[1] = system: Trypanosoma cruzi Tulahuen cells expressing beta-galactosidase; assay: T. cruzi intracellular assay (beta-galactosidase, L6 host cells); conditions: for IC50: Trypanosoma cruzi, TULAHUEN; for Selectivity L6/TC-I: Table 3A
[2] = system: Leishmania amazonensis promastigotes expressing beta-lactamase; assay: microbe, parasite or virus in culture; type: cell-based; conditions: for IC50: Leishmania amazonensis, read-out: IC50 L. amaz.
[3] = system: rat skeletal muscle cell line, L6; assay: cells; type: cell-based; conditions: Rattus norvegicus
[4] = system: Trypanosoma brucei brucei 427 cells; assay: T. brucei culture and assay (PrestoBlue); type: cell-based; conditions: for IC50: mean of 2(+) independent trials, read-out: IC50 T. brucei
[5] = Table 1, intracellular T. cruzi IC50
[6] = read-out: IC50 T. cruzi, Table 1, intracellular assay, mean of 2(+) trials (^c one trial)
[7] = read-out: IC50 T. cruzi, Table 2, intracellular assay, mean of 2(+) independent trials
[8] = read-out: IC50 TC-I, Table 3B, weighted means of two or more independent trials
[9] = Table 2, L6 IC50 / L. amazonensis IC50
[10] = Table 1, read-out: IC50 Toxicity (L6)
[11] = Table 3B, weighted means of two or more independent trials, read-out: IC50 L6
[12] = estimated from highest L6 dose tested where no L6 IC50
[13] = read-out: IC50 TC-I, Table 3A, weighted means of two or more independent trials
[14] = Table 3A, weighted means of two or more independent trials, read-out: IC50 L6

SMILES | Selectivity L6/Tc [1, 5] | Selectivity L6/Tc ([1]; Table 2, L6 IC50 / T. cruzi IC50 (intracellular assay)) | Selectivity L6/Tc-I ([1]; Table 3B, estimated from highest L6 dose tested where no L6 IC50) | IC50 [1, 6] [µM] | IC50 [1, 7] [µM] | IC50 [1, 8] [µM] | IC50 [2] [µM] | Selectivity L6/La ([2]; Table 1) | Selectivity L6/La [2, 9] | IC50 [3, 10] [µM] | IC50 [3, 11] [µM] | IC50 ([4]; Table 2) [µM] | IC50 ([4]; Trypanosoma brucei, Table 1) [µM] | melting point [°C] | Selectivity L6/TC-I [1, 12] | IC50 [1, 13] [µM] | IC50 [3, 14] [µM] | Selectivity L6/Tb ([4]; Table 1) | Selectivity L6/Tb ([4]; Table 3A, estimated from highest L6 dose tested where no L6 IC50)
O=C1/C(=C/c2ccc(Br)s2)Oc2ccccc21 [Aurone 9058, (Z)-2-((5-bromothiophen-2-yl)methylene)benzofuran-3(2H)-one] | 2.28 | 2.28 | 2.28 | 34.8 | 34.8 | 34.8 | 2.73 | 29.05 | 29.05 | 79.3 | 79.3 | > 50 | > 50 | 155 to 158 |  |  |  |  | 
COc1ccc2c(c1)O/C(=C\c1ccc(Br)cc1)C2=O [Aurone 5005, (Z)-2-(4-bromobenzylidene)-6-methoxybenzofuran-3(2H)-one] |  |  |  | > 50 | > 50 |  | 14.3 |  |  | 181 |  |  | 47.2 | 153 |  |  |  |  | 
O=C1/C(=C/c2cccc(Cl)c2)Oc2ccccc21 [Aurone 9026, (Z)-2-(3-chlorobenzylidene)benzofuran-3(2H)-one] | 7.07 |  |  | 11 |  |  | 12.6 | 6.15 |  | 77.5 |  |  | 27.4 | 86 to 89 | 7.07 | 11 | 77.5 | 2.83 | 2.83
CC(C)(C)c1ccc(/C=C2\Oc3ccccc3C2=O)cc1 [Aurone 3008, (Z)-2-(4-(tert-butyl)benzylidene)benzofuran-3(2H)-one] |  |  |  | > 50 | > 50 |  | 3.57 | 27.81 | 27.81 | 99.3 |  | > 50 | > 50 | 87 to 90 | 7.94 | 12.5 | 99.3 |  | 
O=C1/C(=C/c2ccccc2C(F)(F)F)Oc2ccccc21 [Aurone 9086, (Z)-2-(2-(trifluoromethyl)benzylidene)benzofuran-3(2H)-one] |  |  |  | 18.5 | 18.5 |  | 1.9 |  |  | 130 |  |  | 37.6 | 118 to 123 |  |  |  |  | 
Cc1ccc(/C=C2\Oc3ccc(Br)cc3C2=O)cc1 [Aurone 6000, (Z)-5-bromo-2-(4-methylbenzylidene)benzofuran-3(2H)-one] |  |  |  | > 50 | > 50 |  | 8.43 |  |  | > 100 |  |  | > 50 | 115 to 120 |  |  |  |  | 
O=C1/C(=C/c2sccc2Br)Oc2ccccc21 [Aurone 9060] |  |  |  | 34.6 | 34.6 | 34.6 | 1.36 |  |  | > 100 | > 100 |  | > 50 | 176 to 180 |  |  |  |  | 
O=C1/C(=C/c2cc(Br)cs2)Oc2ccccc21 [Aurone 9061, (Z)-2-((4-bromothiophen-2-yl)methylene)benzofuran-3(2H)-one] |  |  |  | > 50 | > 50 | > 50 | 1.7 |  |  | > 100 | > 100 |  | > 50 | 125 to 129 |  |  |  |  | 
COc1ccc2c(c1)O/C(=C\c1ccc(C#N)cc1)C2=O [Aurone 5006, (Z)-4-((6-methoxy-3-oxobenzofuran-2(3H)-ylidene)methyl)benzonitrile] |  |  |  | > 50 | > 50 |  | 4.79 |  |  | 213 |  |  | 30.3 | 180 to 181 |  |  |  |  | 
